Key:
Type in all cases: functional
Conditions in all cases: 240 h, read-out: GI
Setaria viridis = experiment: Herbicidal activity against three-leaf stage Setaria viridis (green foxtail) assessed as plant growth inhibition at 1000 ppm applied through foliar spraying measured after 10 days post compound treatment relative to untreated control
Panicum dichotomiflorum = experiment: Herbicidal activity against three-leaf stage Panicum dichotomiflorum assessed as plant growth inhibition at 1000 ppm applied through foliar spraying measured after 10 days post compound treatment relative to untreated control
Digitaria sanguinalis = experiment: Herbicidal activity against three-leaf stage Digitaria sanguinalis (hairy crabgrass) assessed as plant growth inhibition at 1000 ppm applied through foliar spraying measured after 10 days post compound treatment relative to untreated control
Solanum nigrum = experiment: Herbicidal activity against three-leaf stage Solanum nigrum (black nightshade) assessed as plant growth inhibition at 1000 ppm applied through foliar spraying measured after 10 days post compound treatment relative to untreated control
Ipomoea purpurea = experiment: Herbicidal activity against 3-leaf stage tall Ipomoea purpurea (common morning-glory) assessed as plant growth inhibition at 1000 ppm applied through foliar spraying measured after 10 days post compound treatment relative to untreated control
Sorghum halepense = experiment: Herbicidal activity against three-leaf stage Sorghum halepense (Johnson grass) assessed as plant growth inhibition at 1000 ppm applied through foliar spraying measured after 10 days post compound treatment relative to untreated control
Xanthium strumarium = experiment: Herbicidal activity against three-leaf stage Xanthium strumarium (cocklebur) assessed as plant growth inhibition at 1000 ppm applied through foliar spraying measured after 10 days post compound treatment relative to untreated control
Ambrosia artemisiifolia = experiment: Herbicidal activity against three-leaf stage Ambrosia artemisiifolia (ragweed) assessed as plant growth inhibition at 1000 ppm applied through foliar spraying measured after 10 days post compound treatment relative to untreated control
Echinochloa crus-galli = experiment: Herbicidal activity against three-leaf stage Echinochloa crus-galli (barnyard grass) assessed as plant growth inhibition at 1000 ppm applied through foliar spraying measured after 10 days post compound treatment relative to untreated control
Abutilon theophrasti = experiment: Herbicidal activity against three-leaf stage Abutilon theophrasti (velvetleaf) assessed as plant growth inhibition at 1000 ppm applied through foliar spraying measured after 10 days post compound treatment relative to untreated control

## O=C1NC(=S)N[C@@]12O[C@H](CO)[C@@H](O)[C@H]2O
Setaria viridis
  inhibition of growth at 1000 ppm: 95%
Panicum dichotomiflorum
  inhibition of growth at 1000 ppm: 80%
Digitaria sanguinalis
  inhibition of growth at 1000 ppm: 95%
Solanum nigrum
  inhibition of growth at 1000 ppm: 95%
Ipomoea purpurea
  inhibition of growth at 1000 ppm: 95%
Sorghum halepense
  inhibition of growth at 1000 ppm: 95%
Xanthium strumarium
  inhibition of growth at 1000 ppm: 95%
Ambrosia artemisiifolia
  inhibition of growth at 1000 ppm: 95%
Echinochloa crus-galli
  inhibition of growth at 1000 ppm: 95%
Abutilon theophrasti
  inhibition of growth at 1000 ppm: 95%

## O=C1NC(=O)[C@]2(N1)O[C@H](CO)[C@@H](O)[C@H]2O [HYDANTOCIDIN]
Setaria viridis
  inhibition of growth at 1000 ppm: 80%
Panicum dichotomiflorum
  inhibition of growth at 1000 ppm: 80%
Digitaria sanguinalis
  inhibition of growth at 1000 ppm: 80%
Solanum nigrum
  inhibition of growth at 1000 ppm: 50%
Ipomoea purpurea
  inhibition of growth at 1000 ppm: 30%
Sorghum halepense
  inhibition of growth at 1000 ppm: 0%
Xanthium strumarium
  inhibition of growth at 1000 ppm: 80%
Echinochloa crus-galli
  inhibition of growth at 1000 ppm: 10%
Abutilon theophrasti
  inhibition of growth at 1000 ppm: 80%

## O=C1NC(=S)N[C@]12O[C@H](CO)[C@@H](O)[C@H]2O
Setaria viridis
  inhibition of growth at 1000 ppm: 95%
Panicum dichotomiflorum
  inhibition of growth at 1000 ppm: 80%
Digitaria sanguinalis
  inhibition of growth at 1000 ppm: 95%
Solanum nigrum
  inhibition of growth at 1000 ppm: 80%
Ipomoea purpurea
  inhibition of growth at 1000 ppm: 80%
Sorghum halepense
  inhibition of growth at 1000 ppm: 95%
Xanthium strumarium
  inhibition of growth at 1000 ppm: 95%
Ambrosia artemisiifolia
  inhibition of growth at 1000 ppm: 80%
Echinochloa crus-galli
  inhibition of growth at 1000 ppm: 95%
Abutilon theophrasti
  inhibition of growth at 1000 ppm: 80%

## O=C1NC(=O)[C@@]2(N1)O[C@H](CO)[C@@H](O)[C@H]2O [HYDANTOCIDIN]
Setaria viridis
  inhibition of growth at 1000 ppm: 95%
Panicum dichotomiflorum
  inhibition of growth at 1000 ppm: 95%
Digitaria sanguinalis
  inhibition of growth at 1000 ppm: 95%
Solanum nigrum
  inhibition of growth at 1000 ppm: 95%
Ipomoea purpurea
  inhibition of growth at 1000 ppm: 95%
Sorghum halepense
  inhibition of growth at 1000 ppm: 95%
Xanthium strumarium
  inhibition of growth at 1000 ppm: 95%
Ambrosia artemisiifolia
  inhibition of growth at 1000 ppm: 95%
Echinochloa crus-galli
  inhibition of growth at 1000 ppm: 95%
Abutilon theophrasti
  inhibition of growth at 1000 ppm: 95%

— ChEMBL document CHEMBL3046246, “Synthesis of spirothiohydantoin analogues of hydantocidin” (1995)
